# Reference: ChEMBL document CHEMBL3871285, “NTS2-selective neurotensin mimetics with tetrahydrofuran amino acids” (Bioorg Med Chem, 2017)
# *1 amine or outer side, *2 acyl side, *3 side chain or, on linkers, in order; H or OH if unused. Where a SMILES comes first, the peptide text is derived from it. [ ]: non-standard residue; d: D form. X2 = O=C([C@]1(N[*:1])CCO[C@@H]1c1ccc(Br)cc1)[*:2]; X1 = O=C([C@@]1(N[*:1])CCO[C@H]1c1ccc(O)cc1)[*:2]; X3 = O=C([C@]1(N[*:1])CCO[C@@H]1c1ccc(O)cc1)[*:2]
# What was measured:
# [1] = biological target: Neurotensin receptor type 2 (Homo sapiens, UniProt O95665); assay: Displacement of [leucine-3H]NT (8 to 13 residues) from human NTS2 receptor expressed in HEK293 cell membranes after 60 mins by scintillation counting
# [2] = biological target: Neurotensin receptor type 1 (Homo sapiens, UniProt P30989); assay: Displacement of [3H]neurotensin from human NTS1 receptor expressed in CHOK1 cell membranes after 60 mins by scintillation counting; parameters: species or system CHO-K1
# [3] = Selectivity ratio of IC50 for human NTS1 receptor expressed in CHOK1 cell membranes to IC50 for NTS2 receptor expressed in HEK293 cell membranes
# Chain of Neurotensin receptor type 2 (O95665 whole entry, the tested form may be a part): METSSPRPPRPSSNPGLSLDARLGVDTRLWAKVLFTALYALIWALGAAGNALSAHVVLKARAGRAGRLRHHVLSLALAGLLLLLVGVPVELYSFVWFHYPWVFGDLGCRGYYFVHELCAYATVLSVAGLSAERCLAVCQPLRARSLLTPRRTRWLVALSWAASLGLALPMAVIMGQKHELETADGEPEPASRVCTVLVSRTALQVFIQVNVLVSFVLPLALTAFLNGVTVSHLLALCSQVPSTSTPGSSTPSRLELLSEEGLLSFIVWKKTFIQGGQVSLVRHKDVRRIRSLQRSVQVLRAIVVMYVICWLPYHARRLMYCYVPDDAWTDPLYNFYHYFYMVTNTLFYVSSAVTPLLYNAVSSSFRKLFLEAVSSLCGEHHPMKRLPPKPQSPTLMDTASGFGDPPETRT
# Chain of Neurotensin receptor type 1 (P30989 whole entry): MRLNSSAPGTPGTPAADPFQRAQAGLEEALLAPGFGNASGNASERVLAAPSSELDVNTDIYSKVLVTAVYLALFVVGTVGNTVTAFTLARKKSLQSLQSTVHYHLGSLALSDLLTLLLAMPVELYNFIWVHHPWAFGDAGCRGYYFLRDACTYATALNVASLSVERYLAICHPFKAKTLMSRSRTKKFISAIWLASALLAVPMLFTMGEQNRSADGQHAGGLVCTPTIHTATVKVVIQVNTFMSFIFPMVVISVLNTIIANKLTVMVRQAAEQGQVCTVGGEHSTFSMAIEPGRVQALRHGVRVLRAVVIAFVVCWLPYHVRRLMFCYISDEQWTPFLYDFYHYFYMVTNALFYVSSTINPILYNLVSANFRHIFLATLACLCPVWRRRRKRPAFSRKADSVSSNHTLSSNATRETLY
Compound,Ki [1],Ki [2],Ratio Ki [3]
CC[C@H](C)[C@H](NC(=O)[C@H](Cc1ccc(Br)cc1)NC(=O)[C@@H]1CCCN1C(=O)[C@H](CCCCN)NC(=O)[C@@H](N)CCCCN)C(=O)N[C@@H](CC(C)C)C(=O)O,0.069 µM,0.093 µM,
CC(C)C[C@H](NC(=O)CNC(=O)C1(NC(=O)[C@@H]2CCCN2C(=O)[C@H](CCCCN)NC(=O)[C@@H](N)CCCCN)CCOC1c1ccc(Br)cc1)C(=O)O (stereo in doubt; 16-2),1.95 µM,35 µM,
CC[C@H](C)[C@H](NC(=O)[C@]1(NC(=O)[C@@H]2CCCN2C(=O)[C@H](CCCCN)NC(=O)[C@@H](N)CCCNC(=N)N)CCO[C@@H]1c1ccc(Br)cc1)C(=O)N[C@@H](CC(C)C)C(=O)O (H-RKP[X2]IL-OH),,10 µM,
CC(C)C[C@H](NC(=O)C1(NC(=O)[C@@H]2CCCN2C(=O)[C@H](CCCCN)NC(=O)[C@@H](N)CCCNC(=N)N)CCOC1c1ccc(Br)cc1)C(=O)O (stereo in doubt; 9-2),,> 100 µM,
CC(C)C[C@H](NC(=O)C1(NC(=O)[C@@H]2CCCN2C(=O)[C@H](CCCCN)NC(=O)[C@@H](N)CCCCN)CCOC1c1ccc(Br)cc1)C(=O)O (stereo in doubt; 7-2),2.03 µM,95.5 µM,
CC[C@H](C)[C@H](NC(=O)[C@]1(NC(=O)[C@@H]2CCCN2C(=O)[C@H](CCCCN)NC(=O)[C@@H](N)CCCCN)CCO[C@@H]1c1ccc(Br)cc1)C(=O)N[C@@H](CC(C)C)C(=O)O (H-KKP[X2]IL-OH),,13 µM,
CC(C)C[C@H](NC(=O)C1(NC(=O)[C@@H]2CCCN2C(=O)[C@H](CCCCN)NC(=O)[C@@H](N)CCCNC(=N)N)CCOC1c1ccc(Br)cc1)C(=O)O (stereo in doubt; 9-1),,70.5 µM,
CC(C)C[C@H](NC(=O)C1(NC(=O)[C@@H]2CCCN2C(=O)[C@H](CCCNC(=N)N)NC(=O)[C@@H](N)CCCCN)CCOC1c1ccc(Br)cc1)C(=O)O (stereo in doubt; 8-2),11 µM,92.3 µM,
CC(C)C[C@H](NC(=O)CNC(=O)C1(NC(=O)[C@@H]2CCCN2C(=O)[C@H](CCCCN)NC(=O)[C@@H](N)CCCCN)CCOC1c1ccc(Br)cc1)C(=O)O (stereo in doubt; 16-1),0.5 µM,> 50 µM,
CC(C)C[C@H](NC(=O)C1(NC(=O)[C@@H]2CCCN2C(=O)[C@H](CCCCN)NC(=O)[C@@H](N)CCCCN)CCOC1c1ccc(Br)cc1)C(=O)O (stereo in doubt; 7-1),27 µM,67 µM,
CC(C)C[C@H](NC(=O)C1(NC(=O)[C@@H]2CCCN2C(=O)[C@H](CCCNC(=N)N)NC(=O)[C@@H](N)CCCCN)CCOC1c1ccc(Br)cc1)C(=O)O (stereo in doubt; 8-1),28 µM,53 µM,
CC[C@H](C)[C@H](NC(=O)[C@@H](Cc1ccc(Br)cc1)NC(=O)[C@@H]1CCCN1C(=O)[C@H](CCCCN)NC(=O)[C@@H](N)CCCCN)C(=O)N[C@@H](CC(C)C)C(=O)O,0.873 µM,2.17 µM,
CC[C@H](C)[C@H](NC(=O)[C@]1(NC(=O)[C@@H]2CCCN2C(=O)[C@H](CCCNC(=N)N)NC(=O)[C@@H](N)CCCCN)CCO[C@@H]1c1ccc(Br)cc1)C(=O)N[C@@H](CC(C)C)C(=O)O (H-KRP[X2]IL-OH),0.11 µM,5 µM,

# More lines, main results first:
Ki [1],Ki [2],Compound,Ratio Ki [3]
0.029 µM,35 µM,CC(C)C[C@H](NC(=O)CNC(=O)[C@@]1(NC(=O)[C@@H]2CCCN2C(=O)[C@H](CCCNC(=N)N)NC(=O)[C@@H](N)CCCNC(=N)N)CCO[C@H]1c1ccc(O)cc1)C(=O)O (H-RRP[X1]GL-OH),>1000
0.012 µM,,CC[C@H](C)[C@H](NC(=O)C1(NC(=O)[C@@H]2CCCN2C(=O)[C@H](CCCNC(=N)N)NC(=O)[C@@H](N)CCCNC(=N)N)CCOC1c1ccc(Br)cc1)C(=O)N[C@@H](CC(C)C)C(=O)O (some centres undefined),
0.7 µM,20 µM,CC(C)C[C@H](NC(=O)CNC(=O)[C@]1(NC(=O)[C@@H]2CCCN2C(=O)[C@H](CCCNC(=N)N)NC(=O)[C@@H](N)CCCNC(=N)N)CCO[C@@H]1c1ccc(O)cc1)C(=O)O (H-RRP[X3]GL-OH),
49 µM,91.5 µM,CC(C)C[C@H](NC(=O)C1(NC(=O)[C@@H]2CCCN2C(=O)[C@H](CCCNC(=N)N)NC(=O)[C@@H](N)CCCNC(=N)N)CCOC1c1ccc(Br)cc1)C(=O)O (stereo in doubt; 10-1),
0.012 µM,,CC[C@H](C)[C@H](NC(=O)[C@]1(NC(=O)[C@@H]2CCCN2C(=O)[C@H](CCCNC(=N)N)NC(=O)[C@@H](N)CCCNC(=N)N)CCO[C@@H]1c1ccc(O)cc1)C(=O)N[C@@H](CC(C)C)C(=O)O,
1.43 µM,72.5 µM,CC(C)C[C@H](NC(=O)C1(NC(=O)[C@@H]2CCCN2C(=O)[C@H](CCCNC(=N)N)NC(=O)[C@@H](N)CCCNC(=N)N)CCOC1c1ccc(Br)cc1)C(=O)O (stereo in doubt; 10-2),
0.615 µM,,CC[C@H](C)[C@H](NC(=O)[C@]1(NC(=O)[C@@H]2CCCN2C(=O)[C@H](CCCNC(=N)N)NC(=O)[C@@H](N)CCCNC(=N)N)CCO[C@@H]1c1ccc(Br)cc1)C(=O)N[C@@H](CC(C)C)C(=O)O,
